Results on eight compounds are retold here after patent US9499495B2, “Quinazolines and azaquinazolines as dual inhibitors of RAS/RAF/MEK/ERK and PI3K/AKT/PTEN/mTOR pathways” (Asana Biosciences, LLC, priority 2013, dated 2016).

For orientation: IC50 means the concentration that inhibits the measured activity by half.

Molecules are shown by their SMILES.

One experiment has as its target T1, PI3Kα (Homo sapiens, UniProt P42336).
T1 construct: made in house; host or cells: SF9 cells
Put plainly: PI3 Kinase alpha TR-FRET assay. The format is biochemical. In a few lines: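 Purified Sf9-expressed p110/p85α (5 ng) was pre-incubated with compound and PIP2 at rt, then ATP was added (PIP2 and ATP both 40 μM) for a 30 min reaction. PIP3 was detected by TR-FRET displacement of biotin-PIP3, and IC50 was taken from dose-response curves of the 665/615 nm emission ratio.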

A further experiment concerns the target T2, mTOR kinase (Homo sapiens, UniProt P42345).
T2 construct: purchased Millipore, US
Put plainly: mTOR kinase TR-FRET assay. The format is biochemical. In a few lines: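 TR-FRET with ULight-p70 S6K (Thr 389) peptide (50 nM) and 20 μM ATP in 50 mM HEPES pH 7.5, 1 mM EGTA, 3 mM MnCl2; compound pre-incubated with enzyme before substrate addition, reaction at rt, EDTA-stopped. Eu anti-phospho antibody read 665/615 nm; IC50 from sigmoidal dose-response fit.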
Background: TR-FRET usually uses a lanthanide donor and a delayed reading to cut background.

In a further experiment the test system is pERK in A375 cells. Put plainly: In Cell Western (ICW) assay, pERK in A375 cells. Conditions: Homo sapiens, A-375, 3 h treatment. The format is cell-based. Summed up: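 After a 3 h compound treatment at 37 °C, fixed RKO or A375 cells were probed for phospho-ERK1/2 (T202/Y204), phospho-S6RP or phospho-AKT T308 and detected with a Eu-tagged anti-rabbit antibody (ex 340/em 615 nm), with Hoechst signal as the cell-number correction. Inhibition was referenced to DMSO, and IC50 values came from sigmoidal dose-response curves.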

The next experiment concerns A375 cells. Put plainly: XTT assay for cell viability, A375 cells. The format is cell-based. Conditions: Homo sapiens, A-375, 72 h. Summed up:
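GI50 derived by sigmoidal dose-response fitting of proliferation normalised to DMSO control (100%). Readout: A450 after 2-3 h with XTT (1 mg/ml)/PMS (25 μM), following 72 h compound treatment at 37° C., 5% CO2 of cells plated at 1000-2000 per well the previous day.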

T2 sequence (P42345 1362-2549 limits assumed): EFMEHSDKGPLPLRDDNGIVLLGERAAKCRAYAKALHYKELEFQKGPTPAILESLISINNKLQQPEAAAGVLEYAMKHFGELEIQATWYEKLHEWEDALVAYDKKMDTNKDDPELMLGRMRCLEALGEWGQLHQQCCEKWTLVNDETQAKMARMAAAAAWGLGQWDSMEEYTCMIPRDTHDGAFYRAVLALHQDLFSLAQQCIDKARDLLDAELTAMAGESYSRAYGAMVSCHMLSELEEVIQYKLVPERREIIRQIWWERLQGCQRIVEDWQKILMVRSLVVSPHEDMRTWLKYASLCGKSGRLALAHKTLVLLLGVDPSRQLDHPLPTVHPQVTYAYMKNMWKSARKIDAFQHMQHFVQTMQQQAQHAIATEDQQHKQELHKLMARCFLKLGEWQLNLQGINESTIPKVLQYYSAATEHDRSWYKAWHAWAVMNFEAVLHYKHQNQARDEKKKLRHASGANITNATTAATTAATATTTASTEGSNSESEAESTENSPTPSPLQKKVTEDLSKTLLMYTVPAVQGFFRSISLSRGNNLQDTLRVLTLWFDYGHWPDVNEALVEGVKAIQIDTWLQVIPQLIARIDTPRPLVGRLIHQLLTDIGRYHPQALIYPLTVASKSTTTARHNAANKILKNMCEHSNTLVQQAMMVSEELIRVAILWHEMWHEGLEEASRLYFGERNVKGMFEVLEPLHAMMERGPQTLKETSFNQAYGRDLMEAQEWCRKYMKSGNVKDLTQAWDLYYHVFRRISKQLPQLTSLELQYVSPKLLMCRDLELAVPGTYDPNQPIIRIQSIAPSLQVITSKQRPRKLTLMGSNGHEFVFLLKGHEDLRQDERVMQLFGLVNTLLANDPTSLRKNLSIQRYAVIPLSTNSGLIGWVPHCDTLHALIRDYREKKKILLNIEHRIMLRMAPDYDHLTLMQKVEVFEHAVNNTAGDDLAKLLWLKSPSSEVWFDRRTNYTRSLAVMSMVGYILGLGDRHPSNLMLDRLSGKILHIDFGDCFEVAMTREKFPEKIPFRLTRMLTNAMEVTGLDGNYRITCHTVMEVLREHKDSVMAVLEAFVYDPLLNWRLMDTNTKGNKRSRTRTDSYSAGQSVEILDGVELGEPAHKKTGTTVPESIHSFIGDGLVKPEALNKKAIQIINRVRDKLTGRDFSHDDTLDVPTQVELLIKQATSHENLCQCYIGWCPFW
T1 sequence (P42336 whole entry, species assumed): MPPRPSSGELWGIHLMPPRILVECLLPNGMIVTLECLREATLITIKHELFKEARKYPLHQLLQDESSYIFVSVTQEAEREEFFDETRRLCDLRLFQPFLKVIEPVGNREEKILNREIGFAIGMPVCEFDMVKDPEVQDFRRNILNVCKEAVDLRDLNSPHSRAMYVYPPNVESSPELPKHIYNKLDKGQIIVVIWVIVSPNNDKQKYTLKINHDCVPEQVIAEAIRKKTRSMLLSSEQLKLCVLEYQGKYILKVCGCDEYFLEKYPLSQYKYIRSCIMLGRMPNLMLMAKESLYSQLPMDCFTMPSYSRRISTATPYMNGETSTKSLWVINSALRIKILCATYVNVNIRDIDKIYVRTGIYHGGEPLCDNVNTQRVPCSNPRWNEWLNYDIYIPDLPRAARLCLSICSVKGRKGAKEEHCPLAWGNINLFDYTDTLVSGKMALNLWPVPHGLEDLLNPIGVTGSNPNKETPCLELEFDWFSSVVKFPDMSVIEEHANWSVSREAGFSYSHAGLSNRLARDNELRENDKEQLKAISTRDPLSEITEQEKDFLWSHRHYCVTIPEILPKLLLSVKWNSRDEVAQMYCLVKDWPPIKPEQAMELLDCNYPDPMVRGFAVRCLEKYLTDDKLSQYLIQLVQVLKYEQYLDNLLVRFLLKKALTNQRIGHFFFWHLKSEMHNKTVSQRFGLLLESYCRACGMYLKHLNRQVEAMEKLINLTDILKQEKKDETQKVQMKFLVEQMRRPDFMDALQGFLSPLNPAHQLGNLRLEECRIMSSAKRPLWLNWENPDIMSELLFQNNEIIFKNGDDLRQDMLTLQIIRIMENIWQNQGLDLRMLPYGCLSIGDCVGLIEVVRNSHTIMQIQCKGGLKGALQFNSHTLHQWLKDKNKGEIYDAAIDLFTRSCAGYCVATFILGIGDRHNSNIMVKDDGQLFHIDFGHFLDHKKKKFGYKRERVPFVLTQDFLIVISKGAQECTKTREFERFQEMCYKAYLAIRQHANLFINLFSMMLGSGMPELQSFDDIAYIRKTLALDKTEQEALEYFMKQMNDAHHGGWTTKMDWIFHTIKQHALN
T1 sequence (P27986 whole entry partner, species assumed): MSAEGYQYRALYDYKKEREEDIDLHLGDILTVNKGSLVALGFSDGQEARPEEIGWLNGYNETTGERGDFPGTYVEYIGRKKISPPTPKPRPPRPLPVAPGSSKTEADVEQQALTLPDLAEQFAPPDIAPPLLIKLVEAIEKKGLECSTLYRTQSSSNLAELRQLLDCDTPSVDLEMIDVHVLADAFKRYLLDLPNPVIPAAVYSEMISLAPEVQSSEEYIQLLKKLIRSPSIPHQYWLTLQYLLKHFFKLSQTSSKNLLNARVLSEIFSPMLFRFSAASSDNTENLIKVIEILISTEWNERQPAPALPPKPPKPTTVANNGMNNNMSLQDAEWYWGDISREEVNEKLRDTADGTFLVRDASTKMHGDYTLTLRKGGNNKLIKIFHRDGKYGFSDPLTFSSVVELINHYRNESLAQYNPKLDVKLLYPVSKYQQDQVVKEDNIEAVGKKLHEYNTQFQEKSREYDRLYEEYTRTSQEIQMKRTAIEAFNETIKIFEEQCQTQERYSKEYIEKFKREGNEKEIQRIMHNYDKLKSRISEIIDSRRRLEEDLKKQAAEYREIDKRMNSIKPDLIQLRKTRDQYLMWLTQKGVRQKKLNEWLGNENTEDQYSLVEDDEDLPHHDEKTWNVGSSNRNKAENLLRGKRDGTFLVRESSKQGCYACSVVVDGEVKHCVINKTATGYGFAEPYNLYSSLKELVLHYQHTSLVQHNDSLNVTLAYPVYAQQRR

On to `Nc1cc(C(F)(F)F)c(-c2nc(N3CCOCC3)c3nc(-c4cccc(NS(=O)(=O)c5c(F)cccc5F)c4F)ccc3n2)cn1` [Example 106, N-(3-(2-(6-amino-4-(trifluoromethyl)pyridin-3-yl)-4-morpholinopyrido[3,2-d]pyrimidin-6-yl)-2-fluorophenyl)-2,6-difluorobenzenesulfonamide], for which the IC50 was in the range of 1 to 100 nM against PI3Kα, 1 to 100 nM on mTOR kinase, 1000 to 10000 nM in the experiment on pERK in A375 cells and 100 to 1000 nM in the experiment with A375 cells.

On to `C[C@H]1COCCN1c1nc(-c2cnc(N)cc2C(F)(F)F)nc2ccc(-c3cccc(NS(=O)(=O)CCCF)c3F)nc12` [Example 108, (S)-N-(3-(2-(6-amino-4-(trifluoromethyl)pyrldin-3-yl)-4-(3-methylmorpholino)pyrido[3,2-d]pyrimidin-6-yl)-2-fluorophenyl)-3-fluoropropane-1-sulfonamide], for which the IC50 against PI3Kα is 1 to 100 nM; against mTOR kinase, 100 to 1000 nM; with pERK in A375 cells it was 1 to 100 nM; with A375 cells, 100 to 1000 nM.

For `O=S(=O)(CCCF)Nc1cccc(-c2ccc3nc(-c4ccc(NCCCO)nc4)nc(N4CCOCC4)c3n2)c1F` [Example 111, 3-fluoro-N-(2-fluoro-3-(2-(6-((3-hydroxypropyl)amino)pyridin-3-yl)-4-morpholinopyrido[3,2-d]pyrimidin-6-yl)phenyl)propane-1-sulfonamide], the IC50 against PI3Kα was in the range of 100 to 1000 nM; on mTOR kinase it was 1 to 100 nM; with pERK in A375 cells, 100 to 1000 nM; in the experiment on A375 cells, 100 to 1000 nM.

With `CNc1ccc(-c2nc(N3CCOCC3)c3nc(-c4cccc(NS(=O)(=O)CCCF)c4F)ccc3n2)cn1` [Example 113, 3-fluoro-N-(2-fluoro-3-(2-(6-(methylamino)pyridin-3-yl)-4-morpholinopyrido[3,2-d]pyrimidin-6-yl)phenyl)propane-1-sulfonamide], the IC50 against PI3Kα lay within 1 to 100 nM; against mTOR kinase it was 1 to 100 nM; in the experiment on pERK in A375 cells, 1 to 100 nM; in the experiment on A375 cells, 100 to 1000 nM.

As to `Cc1cc(-c2cccc(NS(=O)(=O)CCCF)c2F)cc2c(N3CCOCC3)nc(-c3cnc(N)nc3)nc12` [Example 116, N-(3-(2-(2-aminopyrimidin-5-yl)-8-methyl-4-morpholinoquinazolin-6-yl)-2-fluorophenyl)-3-fluoropropane-1-sulfonamide], the IC50 at PI3Kα lay in the range of 100 to 1000 nM; against mTOR kinase, 100 to 1000 nM; in the experiment on pERK in A375 cells, 1 to 100 nM; in the experiment on A375 cells, 1 to 100 nM.

For `C[C@H]1COCCN1c1nc(-c2cnc(N)cc2F)nc2ccc(-c3cccc(NS(=O)(=O)CCCF)c3F)nc12` [Example 129, (S)-N-(3-(2-(6-amino-4-fluoropyridin-3-yl)-4-(3-methylmorpholino)pyrido[3,2-d]pyrimidin-6-yl)-2-fIuorophenyl)-3-fluoropropane-1-sulfonamide], the IC50 was in the range of 1 to 100 nM on PI3Kα, 1 to 100 nM against mTOR kinase, 100 to 1000 nM in the experiment on pERK in A375 cells and 100 to 1000 nM in the experiment with A375 cells.

For the compound `COc1cc(-c2cccc(NS(=O)(=O)CCCF)c2F)cc2c(N3CCOC[C@H]3C)nc(-c3cnc(N)c(F)c3)nc12` [Example 134, (R)-N-(3-(2-(6-amino-5-fluoropyridin-3-yl)-8-methoxy-4-(3-methylmorpholino)quinazolin-6-yl)-2-fluorophenyl)-3-fluoropropane-1-sulfonamide], the IC50 on PI3Kα lay within 1000 to 10000 nM; against mTOR kinase, 1 to 100 nM; with pERK in A375 cells, 1 to 100 nM; with A375 cells, 1 to 100 nM.

Turning to `COc1cc(-c2cccc(NS(=O)(=O)CCCF)c2F)cc2c(N3CCOC[C@H]3C)nc(-c3cnc(N)cc3F)nc12` [Example 135, (R)-N-(3-(2-(6-amino-4-fluoropyridin-3-yl)-8-methoxy-4-(3-methylmorpholino)quinazolin-6-yl)-2-fluorophenyl)-3-fluoropropane-1-sulfonamide], the IC50 at PI3Kα is 1000 to 10000 nM; against mTOR kinase, 1 to 100 nM; in the experiment with pERK in A375 cells, 1 to 100 nM; in the experiment with A375 cells, 1 to 100 nM.
